Test results as given in PMC12300743, “Unveiling the Solvent Effect: DMSO Interaction with Human Nerve Growth Factor and Its Implications for Drug Discovery” (Molecules, 2025).

Molecular target: T1, hNGF (Homo sapiens, UniProt P01138)
T1 construct: gene NGF; homodimer; amine-coupled to the GCI chip
Experiment: grating-coupled interferometry (Creoptix WAVE-delta, waveRAPID), hNGF immobilised by amine coupling
Type: binding

T1 sequence (P01138 122-239): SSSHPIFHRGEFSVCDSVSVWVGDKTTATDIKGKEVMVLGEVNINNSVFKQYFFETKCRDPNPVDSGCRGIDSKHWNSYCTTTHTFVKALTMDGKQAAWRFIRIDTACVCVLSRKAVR

C[S+](C)[O-] [DMSO]
Kd: ~2100 µM
